Experimental data as given in patent US8436023B2, “Cyclohexyl-azetidinyl antagonists of CCR2” (Janssen Pharmaceutica N.V., priority 2010, dated 2013).

molecular target: T1, CCR2 (Homo sapiens, UniProt P41597); assay: MCP-1 Receptor Binding Assay in THP-1 Cells; settings: 0.5 nM 125I labeled MCP-1, 2 hours at 30° C., less polar isomer tested where stated, read-out: Inhibition of MCP-1 Binding IC50, CCR2 Binding
T1 construct: host or cells: THP-1 human monocytic cells
T1 sequence (P41597 1-360 isoform P41597-2): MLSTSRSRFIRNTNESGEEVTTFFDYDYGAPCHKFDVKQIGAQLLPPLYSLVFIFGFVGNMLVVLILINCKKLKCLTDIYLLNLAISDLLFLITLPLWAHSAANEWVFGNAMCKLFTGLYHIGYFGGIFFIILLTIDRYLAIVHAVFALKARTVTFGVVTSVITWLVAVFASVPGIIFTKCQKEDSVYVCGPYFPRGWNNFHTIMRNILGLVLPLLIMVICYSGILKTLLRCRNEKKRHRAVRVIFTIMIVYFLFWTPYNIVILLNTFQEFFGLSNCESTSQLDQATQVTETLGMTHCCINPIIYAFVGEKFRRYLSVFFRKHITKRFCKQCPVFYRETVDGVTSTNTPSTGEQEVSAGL
In short: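 Whole THP-1 cells incubated 2 h at 30 °C with 0.5 nM 125I-MCP-1 and varying concentrations of test compound; bound radioactivity counted after filter harvesting. Where no IC50 obtained, % inhibition given at 25 μM.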

Row | IC50 | Compound
1 | 51 nM | CCn1nc(NCC(=O)NC2CN(C3CCC(O)(c4nccs4)CC3)C2)c2cc(C(F)(F)F)ccc21 (stereo not drawn) [Example 68, 2-(1-Ethyl-5-trifluoromethyl-1H-indazol-3-ylamino)-N-[1-(4-hydroxy-4-thiazol-2-yl-cyclohexyl)-azetidin-3-yl]-acetamide]
2 | 13 nM | Cn1nc(NCC(=O)NC2CN(C3CCC(O)(c4nccs4)CC3)C2)c2cc(C(F)(F)F)ccc21 (stereo not drawn) [Example 22, N-[1-(4-Hydroxy-4-thiazol-2-yl-cyclohexyl)-azetidin-3-yl]-2-(1-methyl-5-trifluoromethyl-1H-indazol-3-ylamino)-acetamide]
3 | 9.4 nM | COc1ccc(C2(O)CCC(N3CC(NC(=O)CNc4nn(C)c5ccc(C(F)(F)F)cc45)C3)CC2)cn1 (stereo not drawn) [Example 18, N-{1-[4-Hydroxy-4-(6-methoxy-pyridin-3-yl)-cyclohexyl]-azetidin-3-yl}-2-(1-methyl-5-trifluoromethyl-1H-indazol-3-ylamino)-acetamide]
4 | 29 nM | NC(=O)n1nc(NCC(=O)NC2CN(C3CCC(O)(c4nccs4)CC3)C2)c2cc(C(F)(F)F)ccc21 (stereo not drawn) [Example 81, 3-({[1-(4-Hydroxy-4-thiazol-2-yl-cyclohexyl)-azetidin-3-ylcarbamoyl]-methyl}-amino)-5-trifluoromethyl-indazole-1-carboxylic acid amide]
5 | 12 nM | NC(=O)Cc1ccc(C2CCC(N3CC(NC(=O)CNc4n[nH]c5ccc(C(F)(F)F)cc45)C3)CC2)cc1 (stereo not drawn) [Example 47, 2-[4-(4-{3-[2-(5-Trifluoromethyl-1H-indazol-3-ylamino)-acetylamino]-azetidin-1-yl}-cyclohexyl)-phenyl]-acetamide]
6 | 23 nM | COc1ccc(C2(O)CCC(N3CC(NC(=O)CNc4noc5ccc(C(F)(F)F)cc45)C3)CC2)cn1 (stereo not drawn) [Example 2, N-{1-[4-Hydroxy-4-(6-methoxy-pyridin-3-yl)-cyclohexyl]-azetidin-3-yl}-2-(5-trifluoromethyl-benzo[d]isoxazol-3-ylamino)-acetamide]
7 | 56 nM | CCOC(=O)C1CCC(N2CC(NC(=O)CNc3nn(C(N)=O)c4ccc(C(F)(F)F)cc34)C2)CC1 (stereo not drawn) [Example 89, 4-{3-[2-(1-Carbamoyl-5-trifluoromethyl-1H-indazol-3-ylamino)-acetylamino]-azetidin-1-yl}-cyclohexane carboxylic acid ethyl ester]
8 | 1100 nM | Cc1ccc(C2(O)CCC(N3CC(NC(=O)CNc4nn(C)c5ccc(OCC(F)(F)F)cc45)C3)CC2)cn1 (stereo not drawn) [Example 101]
9 | 16 nM | COc1ccc(C2(O)CCC(N3CC(NC(=O)CNc4n[nH]c5ccc(C(F)(F)F)cc45)C3)CC2)cn1 (stereo not drawn) [Example 44, N-{1-[4-Hydroxy-4-(6-methoxy-pyridin-3-yl)-cyclohexyl]-azetidin-3-yl}-2-(5-trifluoromethyl-1H-indazol-3-ylamino)-acetamide]
10 | 330 nM | CCC(O)[C@H]1CC[C@H](N2CC(NC(=O)CNc3n[nH]c4ncc(C(F)(F)F)cc34)C2)CC1 (single isomer, unassigned) [Example 106]
11 | 19 nM | Cc1ncc(C2(O)CCC(N3CC(NC(=O)CNc4nn(C)c5ccc(C(F)(F)F)cc45)C3)CC2)s1 (stereo not drawn) [Example 28, N-{-[4-Hydroxy-4-(2-methyl-thiazol-5-yl)-cyclohexyl]-azetidin-3-yl}-2-(1-methyl-5-trifluoromethyl-1H-indazol-3-ylamino)-acetamide]
12 | 360 nM | CCOC(=O)C1CCC(N2CC(NC(=O)CNc3nn(C(=O)NC(C)(C)C)c4ccc(C(F)(F)F)cc34)C2)CC1 (stereo not drawn) [Example 88, 4-{3-[2-(1-tert-Butylcarbamoyl-5-trifluoromethyl-1H-indazol-3-ylamino)-acetylamino]-azetidin-1-yl}-cyclohexanecarboxylic acid ethyl ester]
13 | 28 nM | Cn1nc(NCC(=O)NC2CN(C3CCC(O)(c4cncs4)CC3)C2)c2cc(C(F)(F)F)ccc21 (stereo not drawn) [Example 21, N-[1-(4-Hydroxy-4-thiazol-5-yl-cyclohexyl)-azetidin-3-yl]-2-(1-methyl-5-trifluoromethyl-1H-indazol-3-ylamino)-acetamide]
14 | 770 nM | O=C(CNc1noc2ccc(C(F)(F)F)cc12)NC1CN(C2CCC(O)CC2)C1 (stereo not drawn) [Example 9, N-[1-(4-Hydroxy-cyclohexyl)-azetidin-3-yl]-2-(5-trifluoromethyl-benzo[d]isoxazol-3-ylamino)-acetamide]
15 | 1500 nM | CCc1ncc(C2(O)CCC(N3CC(NC(=O)CNc4nn(C)c5ccc(C(O)C(F)(F)F)cc45)C3)CC2)s1 (stereo not drawn) [Example 62, N-{1-[4-(2-Ethyl-thiazol-5-yl)-4-hydroxy-cyclohexyl]-azetidin-3-yl}-2-[1-methyl-5-(2,2,2-trifluoro-1-hydroxy-ethyl)-1H-indazol-3-ylamino]-acetamide]
16 | 42 nM | Cn1nc(NCC(=O)NC2CN(C3CCC(O)(c4cncs4)CC3)C2)c2cc(OC(F)(F)F)ccc21 (stereo not drawn) [Example 55, N-[1-(4-Hydroxy-4-thiazol-5-yl-cyclohexyl)-azetidin-3-yl]-2-(1-methyl-5-trifluoromethoxy-1H-indazol-3-ylamino)-acetamide]
17 | 29 nM | CC(C)NC(=O)n1nc(NCC(=O)NC2CN(C3CCC(c4ccccc4)CC3)C2)c2cc(C(F)(F)F)ccc21 (stereo not drawn) [Example 90, 3-({[1-(4-Phenyl-cyclohexyl)-azetidin-3-ylcarbamoyl]-methyl}-amino)-5-trifluoromethyl-indazole-1-carboxylic acid isopropylamide]
18 | 5.8 nM | Cc1ccc(C2(O)CCC(N3CC(NC(=O)CNc4n[nH]c5ccc(C(F)(F)F)cc45)C3)CC2)cn1 (stereo not drawn) [Example 43, N-{1-[4-Hydroxy-4-(6-methyl-pyridin-3-yl)-cyclohexyl]-azetidin-3-yl}-2-(5-trifluoromethyl-1H-indazol-3-ylamino)-acetamide]
